These results are taken from US8309718B2, “4-pyrazolyl-N-arylpyrimidin-2-amines and 4-pyrazolyl-N-heteroarylpyrimidin-2-amines as janus kinase inhibitors” (Incyte Corporation, priority 2007, dated 2012).

The term IC50 denotes the midpoint of a concentration-inhibition curve.

T1 sequence (O60674 828-1132): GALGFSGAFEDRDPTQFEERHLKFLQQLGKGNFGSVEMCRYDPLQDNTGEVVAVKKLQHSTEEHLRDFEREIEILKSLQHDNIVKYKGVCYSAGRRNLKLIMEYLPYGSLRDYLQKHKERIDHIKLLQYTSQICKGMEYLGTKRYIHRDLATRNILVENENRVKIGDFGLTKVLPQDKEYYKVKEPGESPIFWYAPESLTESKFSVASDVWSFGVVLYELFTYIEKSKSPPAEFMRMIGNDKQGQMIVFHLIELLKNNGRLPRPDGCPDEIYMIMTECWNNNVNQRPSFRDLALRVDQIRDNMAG

The experiment addresses T1, human JAK2 (Homo sapiens, UniProt O60674).
T1 construct: JAK2 (a.a. 828-1132); His tag (N); made in house; host or cells: insect cells (baculovirus)
Nature of the experiment: In vitro JAK kinase assay (HTRF, phosphorylation of biotinylated peptide). Conditions: catalytic domain a.a. 828-1132, 30 μM ATP, 500 nM peptide, room temperature 1 hr; read-out: JAK-2 IC50. It counts as biochemical. The protocol: Compounds herein were tested for inhibitory activity of JAK targets according to the following in vitro assay described in Park et al, Analytical Biochemistry 1999, 269, 94-104. The catalytic domains of human JAK1 (a.a. 837-1142), JAK2 (a.a. 828-1132) and JAK3 (a.a. 781-1124) with an N-terminal His tag were expressed using baculovirus in insect cells and purified. The catalytic activity of JAK1, JAK2 or JAK3 was assayed by measuring the phosphorylation of a biotinylated peptide. The phosphorylated peptide was detected by homogenous time resolved fluorescence (HTRF). IC50s of compounds were measured for each kinase in the reactions that contain the enzyme, ATP and 500 nM peptide in 50 mM Tris (pH 7.8) buffer with 100 mM NaCl, 5 mM DTT, and 0.1 mg/mL (0.01%) BSA. The ATP concentration in the reactions was 90 μM for JAK1, 30 μM for Jak2 and 3 μM for JAK3. Reactions were carried out at room temperature for 1 hr and then stopped with 20 μL 45 mM EDTA, 300 nM SA-APC, 6 nM Eu-Py20 in assay buffer (Perkin Elmer, Boston, Mass.). Binding to the Europium labeled antibody took place for 40 minutes and HTRF signal was measured on a Fusion plate reader (Perkin Elmer, Boston, Mass.). Certain of the above compounds were tested according to this assay.
In general terms: TR-FRET usually uses a lanthanide donor and a delayed reading to cut background.
As to `COCC(C)NC(=O)c1ccc(Nc2ncc(C)c(-c3cnn(C(CC#N)C4CCCC4)c3)n2)cc1` (mixture of isomers) [Example 87, 4-(4-(1-(2-cyano-1-cyclopentylethyl)-1H-pyrazol-4-yl)-5-methylpyrimidin-2-ylamino)-N-(1-methoxypropan-2-yl)benzamide], the half-maximal inhibitory concentration (IC50) was under 100 nM.
As for `COCC(C)NC(=O)c1cccc(Nc2nccc(-c3cnn(C(CC#N)C4CCCC4)c3)n2)c1` (mixture of isomers) [Example 113, 3-(4-(1-(2-cyano-1-cyclopentylethyl)-1H-pyrazol-4-yl)pyrimidin-2-ylamino)-N-(1-methoxypropan-2-yl)benzamide], the figure is under 100 nM.
As for `N#CCC(C1CCCC1)n1cc(-c2ccnc(Nc3ccc(C(=O)N4CC[C@@H](O)C4)cc3)n2)cn1` (mixture of isomers) [Example 127, 3-cyclopentyl-3-(4-(2-(4-((R)-3-hydroxypyrrolidine-1-carbonyl)phenylamino)pyrimidin-4-yl)-1H-pyrazol-1-yl)propanenitrile], the figure is under 100 nM.
`N#CCC(C1CCCC1)n1cc(-c2ccnc(Nc3cccc(C(=O)N4CC[C@@H](O)C4)c3)n2)cn1` (mixture of isomers) [Example 141, 3-cyclopentyl-3-(4-(2-(3-((R)-3-hydroxypyrrolidine-1-carbonyl)phenylamino)pyrimidin-4-yl)-1H-pyrazol-1-yl)propanenitrile]: the IC50 is under 100 nM.
As to `COc1cccc([C@@H](C)NC(=O)c2cccc(Nc3nccc(-c4cnn(C(CC#N)C5CCCC5)c4)n3)c2)c1` (mixture of isomers) [Example 145, 3-(4-(1-(2-cyano-1-cyclopentylethyl)-1H-pyrazol-4-yl)pyrimidin-2-ylamino)-N—((R)-1-(3-methoxyphenyl)ethyl)benzamide], the concentration for half-maximal inhibition (IC50) is under 100 nM.
Regarding `N#CCC(C1CCCC1)n1cc(-c2ccnc(Nc3cccc(C(=O)N4CCC(c5ccccn5)C4)c3)n2)cn1` (mixture of isomers) [Example 152, 3-cyclopentyl-3-(4-(2-(3-(3-(pyridin-2-yl)pyrrolidine-1-carbonyl)phenylamino)pyrimidin-4-yl)-1H-pyrazol-1-yl)propanenitrile], the half-inhibitory concentration (IC50) is under 100 nM.
To `CC(NC(=O)c1cccc(Nc2nccc(-c3cnn(C(CC#N)C4CCCC4)c3)n2)c1)c1ccccn1` (mixture of isomers) [Example 156, 3-(4-(1-(2-cyano-1-cyclopentylethyl)-1H-pyrazol-4-yl)pyrimidin-2-ylamino)-N-(1-(pyridin-2-yl)ethyl)benzamide] belongs under 100 nM; to `N#CCC(C1CCCC1)n1cc(-c2ccnc(Nc3cccc(C(=O)N4CCC(c5cccc(F)c5)C4)c3)n2)cn1` (mixture of isomers) [Example 157, 3-cyclopentyl-3-(4-(2-(3-(3-(3-fluorophenyl)pyrrolidine-1-carbonyl)phenylamino)pyrimidin-4-yl)-1H-pyrazol-1-yl)propanenitrile], under 100 nM; to `CC(=O)N[C@@H]1CCN(C(=O)c2cccc(Nc3nccc(-c4cnn(C(CC#N)C5CCCC5)c4)n3)c2)C1` (mixture of isomers) [Example 158, N-((3R)-1-(3-(4-(1-(2-cyano-1-cyclopentylethyl)-1H-pyrazol-4-yl)pyrimidin-2-ylamino)benzoyl)pyrrolidin-3-yl)acetamide], under 100 nM.
As for `COC[C@H]1CCCN1C(=O)c1cccc(Nc2nccc(-c3cnn(C(CC#N)C4CCCC4)c3)n2)c1` (mixture of isomers) [Example 162, 3-cyclopentyl-3-(4-(2-(3-((R)-2-(methoxymethyl)pyrrolidine-1-carbonyl)phenylamino)pyrimidin-4-yl)-1H-pyrazol-1-yl)propanenitrile], the figure is under 100 nM.
As for `N#CCC(C1CCCC1)n1cc(-c2ccnc(Nc3cccc(C(=O)N[C@H]4CCN(Cc5ccccc5)C4)c3)n2)cn1` (mixture of isomers) [Example 167, N—((S)-1-benzylpyrrolidin-3-yl)-3-(4-(1-(2-cyano-1-cyclopentylethyl)-1H-pyrazol-4-yl)pyrimidin-2-ylamino)benzamide], the figure is under 100 nM.
